Laboratory results taken from patent publication US10450549B2, “Aryloxyphenoxypropionate tolerance in turfrgass species and use of AAD1 as a selectable marker” (Dow AgroSciences, LLC, priority 2004, dated 2019).
Like-named read-outs stand apart in the source and are kept apart here.

Key:
PAAD1.315.064 ARBTH = experiment: In vitro plate test of herbicide cross resistance: homozygous T4 AAD1 (v3) Arabidopsis; format: in vivo, Arabidopsis thaliana; settings: for root ratio / shoot ratio: resistant to sensitive biotype, >2 signifies resistance; for PAAD1.315.064 ARBTH root 150 / PAAD1.315.064 T3 ARBTH shoot 150: 7 days
In short: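 Surface-sterilised seeds sown in nutrient agar dosed with test compounds from DMSO stocks (final DMSO ≤1% v/v; DMSO-only control), grown 7 days at 25 °C under continuous light (75 μE m^−2 s^−1). Shoot growth reduction scored visually; root length measured (≥5 plants averaged) vs control. I50 calculated for root and shoot.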

Wildtype Arabidopsis = experiment: T1 Arabidopsis spray test, % visual injury 2 WAT: wildtype control; format: in vivo, Arabidopsis thaliana
Text: Random individual T1 plants selected for glufosinate resistance above were confirmed for expression of the PAT protein using a PAT ELISA kit (Part no. 7000045, Strategic Diagnostics, Inc., Newark, Del.) to non-destructively confirm fidelity of selection process (manufacturer's protocol). Plants were then randomly assigned to various rates of phenoxy herbicides (dichlorprop or 2,4-D). […] Elevated rates were applied in subsequent trials (50, 200, 800, or 3200 g ae/ha).
All auxin herbicide applications were made using the DeVilbiss sprayer as described above to apply 703 L/ha spray volume (0.4 ml solution/3-inch pot) or applied by track sprayer in a 187 L/ha spray volume. […] Dichlorprop used was technical grade (Sigma, St. Louis, Mo.) dissolved in DMSO and diluted in water (<1% DMSO final concentration). As herbicide rates increased beyond 800 g ae/ha, the pH of the spray solution became exceedingly acidic, burning the leaves of young, tender Arabidopsis plants and complicating evaluation of the primary effects of the herbicides. It became standard practice to apply these high rates of phenoxy herbicides in 200 mM Tris buffer (pH 9.0) to a final pH of ˜7-8.
Although Arabidopsis, being a dicot, is not an optimal system for testing ACCase-inhibiting AOPP grass herbicides, AAD1 (v3)-transformed T1 plants were subjected to elevated rates (400-1600 g ae/ha) of RS-haloxyfop acid (internally synthesized) that do cause growth abnormalities and death of wildtype Arabidopsis using the DeVilbiss sprayer as described above. Injury ratings were taken 7 and 14 days after treatment. Likewise, T1 individuals were treated with the pyridyloxyacetate auxin herbicide, fluroxypyr.
Table 16. […] Response is presented in terms of % visual injury 2 WAT. […] Since each T1 is an independent transformation event, one can expect significant variation of individual T1 responses within a given rate. An arithmetic mean and standard deviation is presented for each treatment. The range in individual response is also indicated in the last column for each rate and transformation. PAT/Cry1F-transformed Arabidopsis served as an auxin-sensitive transformed control. Wildtype Arabidopsis is untransformed.
(§1) Table 17. T1 Arabidopsis response to a range of dichlroprop rates applied postemergence. Response is presented in terms of % visual injury 2 WAT. […] Since each T1 is an independent transformation event, one can expect significant variation of individual T1 responses within a given rate. An arithmetic mean and standard deviation is presented for each treatment. The range in individual response is also indicated in the last column for each rate and transformation. PAT/Cry1F-transformed Arabidopsis served as an auxin-sensitive transformed control. Wildtype Arabidopsis is untransformed.
as §1, with “18.” for “17.”, “haloxyfop” for “dichlroprop”, “postemergence at artificially high rates attempting to show tolerance of the dicot Arabidopsis to the graminicide.” for “postemergence.”

[1] = system: Arabidopsis thaliana var. Columbia; experiment: Arabidopsis plate test bioassay for herbicide degradation; format: in vivo; settings: for IC50: 168 h; for GR50 ratio: enzyme-expressing lysate vs blank vector, ≥ 2 = threshold for activity loss; for herbicidal activity after AAD1 (v1) treatment, Arabidopsis plate assay: unpurified recombinant AAD1 (v1) extract
AAD1 (v1) = target: T1, AAD1 (v1) (Sphingobium herbicidovorans, UniProt Q8KSC8); experiment: Colorimetric phenol detection assay of AAD1 (v1) activity (purified enzyme or E. coli extract); format: biochemical; settings: for activity of AAD1 (v1) E. coli extract on substrate: 0.5 mM substrate, 4 μl extract; for A510, AAD1 / A510, AAD1 (10x): substrate 1 mM; for A510, AAD1: 1 μg purified AAD1 (v1) per 0.16 ml assay; for A510, AAD1 (10x): 10 μg purified AAD1 (v1) per 0.16 ml assay
T1 construct: made in house; host or cells: E. coli BL-21 Star (DE3), plasmid pDAB3203

[2] = Escherichia coli, in Arabidopsis thaliana, cell lysate of E. coli pET vector without gene insert, read-out: GR50, Chemical + Blank Vector
[3] = Arabidopsis thaliana, read-out: GR50, Chemical + AAD1 v1
[4] = number of individuals; 100 g ae/ha; Wildtype; 2 WAT
[5] = number of individuals; 200 g ae/ha; Wildtype; 2 WAT
[6] = number of individuals; 400 g ae/ha; Wildtype; 2 WAT
[7] = number of individuals; 800 g ae/ha; Wildtype; 2 WAT
[8] = number of individuals; 1600 g ae/ha; Wildtype; 2 WAT

T1 sequence (Q8KSC8 whole entry): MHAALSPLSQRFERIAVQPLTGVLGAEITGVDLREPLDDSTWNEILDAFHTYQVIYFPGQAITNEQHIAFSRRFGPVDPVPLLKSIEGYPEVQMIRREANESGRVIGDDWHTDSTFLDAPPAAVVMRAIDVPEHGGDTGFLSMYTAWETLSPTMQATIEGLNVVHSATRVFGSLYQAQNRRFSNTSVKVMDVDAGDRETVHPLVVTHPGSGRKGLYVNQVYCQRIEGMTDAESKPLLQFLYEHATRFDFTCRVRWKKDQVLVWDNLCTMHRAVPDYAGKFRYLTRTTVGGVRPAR

CC(Oc1ccc(Cl)cc1Cl)C(=O)O (racemic) [(R,S)-dichlorprop, 2,4-dichlorophenoxypropionic acid]
root ratio (PAAD1.315.064 ARBTH): 150
shoot ratio (PAAD1.315.064 ARBTH): 2.5
PAAD1.315.064 ARBTH root 150 (PAAD1.315.064 ARBTH): 1.5 ppm
PAAD1.315.064 T3 ARBTH shoot 150 (PAAD1.315.064 ARBTH): 5 ppm
% Injury Ave (Wildtype Arabidopsis; Wildtype; 12.5 g ae/ha; 2 WAT): 13.3%
% Injury Range (Wildtype Arabidopsis; Wildtype; 12.5 g ae/ha; 2 WAT): 10-15%
individuals with 20-40% injury (Wildtype Arabidopsis; Wildtype; 12.5 g ae/ha; 2 WAT): 0
individuals with <20% injury (Wildtype Arabidopsis; Wildtype; 12.5 g ae/ha; 2 WAT): 3
individuals with >40% injury (Wildtype Arabidopsis; Wildtype; 12.5 g ae/ha; 2 WAT): 0
% Injury Ave (Wildtype Arabidopsis; Wildtype; 50 g ae/ha; 2 WAT): 53.3%
% Injury Range (Wildtype Arabidopsis; Wildtype; 50 g ae/ha; 2 WAT): 50-60%
individuals with 20-40% injury (Wildtype Arabidopsis; Wildtype; 50 g ae/ha; 2 WAT): 0
individuals with <20% injury (Wildtype Arabidopsis; Wildtype; 50 g ae/ha; 2 WAT): 0
individuals with >40% injury (Wildtype Arabidopsis; Wildtype; 50 g ae/ha; 2 WAT): 3
% Injury Ave (Wildtype Arabidopsis; Wildtype; 200 g ae/ha; 2 WAT): 95.0%
% Injury Range (Wildtype Arabidopsis; Wildtype; 200 g ae/ha; 2 WAT): 90-100%
individuals with 20-40% injury (Wildtype Arabidopsis; Wildtype; 200 g ae/ha; 2 WAT): 0
individuals with <20% injury (Wildtype Arabidopsis; Wildtype; 200 g ae/ha; 2 WAT): 0
individuals with >40% injury (Wildtype Arabidopsis; Wildtype; 200 g ae/ha; 2 WAT): 3
% Injury Ave (Wildtype Arabidopsis; Wildtype; 800 g ae/ha; 2 WAT): 100.0%
% Injury Range (Wildtype Arabidopsis; Wildtype; 800 g ae/ha; 2 WAT): 100%
individuals with 20-40% injury (Wildtype Arabidopsis; Wildtype; 800 g ae/ha; 2 WAT): 0
individuals with <20% injury (Wildtype Arabidopsis; Wildtype; 800 g ae/ha; 2 WAT): 0
individuals with >40% injury (Wildtype Arabidopsis; Wildtype; 800 g ae/ha; 2 WAT): 3
GR99 for Arabidopsis (Wildtype Arabidopsis; postemergence spray): ~200 g ae/ha
IC50 ([1]; Arabidopsis thaliana, AAD1 (v1)-expressing lysate, nominal concentration, read-out: GR50, Chemical + AAD1 v1): 1000 nM
IC50 [1, 2]: 30 nM
GR50 ratio [1]: 33
herbicidal activity after AAD1 (v1) treatment, Arabidopsis plate assay [1]: effectively degraded
activity of AAD1 (v1) E. coli extract on substrate (AAD1 (v1); 15 min): cleaved
A510, AAD1 (AAD1 (v1); Table 3, 15 min): 0.566
A510, AAD1 (10x) (AAD1 (v1); Table 3, 15 min): 2.594

O=C(O)COc1ccc(Cl)cc1Cl [2,4-D, 2,4-dichlorophenoxyacetic acid]
PAAD1.315.064 ARBTH root 150 (PAAD1.315.064 ARBTH): 0.04 ppm
PAAD1.315.064 T3 ARBTH shoot 150 (PAAD1.315.064 ARBTH): 10 ppm
% Injury Ave (Wildtype Arabidopsis; Wildtype; 50 g ae/ha; 2 WAT): 90.0%
individuals with 20-40% injury (Wildtype Arabidopsis; Wildtype; 50 g ae/ha; 2 WAT): 0
individuals with <20% injury (Wildtype Arabidopsis; Wildtype; 50 g ae/ha; 2 WAT): 0
individuals with >40% injury (Wildtype Arabidopsis; Wildtype; 50 g ae/ha; 2 WAT): 15
% Injury Ave (Wildtype Arabidopsis; Wildtype; 200 g ae/ha; 2 WAT): 95.1%
individuals with 20-40% injury (Wildtype Arabidopsis; Wildtype; 200 g ae/ha; 2 WAT): 0
individuals with <20% injury (Wildtype Arabidopsis; Wildtype; 200 g ae/ha; 2 WAT): 0
individuals with >40% injury (Wildtype Arabidopsis; Wildtype; 200 g ae/ha; 2 WAT): 15
% Injury Ave (Wildtype Arabidopsis; Wildtype; 800 g ae/ha; 2 WAT): 100.0%
individuals with 20-40% injury (Wildtype Arabidopsis; Wildtype; 800 g ae/ha; 2 WAT): 0
individuals with <20% injury (Wildtype Arabidopsis; Wildtype; 800 g ae/ha; 2 WAT): 0
individuals with >40% injury (Wildtype Arabidopsis; Wildtype; 800 g ae/ha; 2 WAT): 15
GR99 for Arabidopsis (Wildtype Arabidopsis; postemergence spray): about 50 g ae/ha
IC50 [1, 3]: 267 nM
IC50 ([1]; Arabidopsis thaliana, read-out: GR50, Chemical alone): 22 nM
IC50 ([1]; Escherichia coli, in Arabidopsis thaliana, read-out: GR50, Chemical + Blank Vector): 17 nM
herbicidal activity after AAD1 (v1) treatment, Arabidopsis plate assay [1]: almost complete loss
activity of AAD1 (v1) E. coli extract on substrate (AAD1 (v1); 15 min): cleaved
Vmax (A510 units) (AAD1 (v1); AAD1 (v1) (pDAB3203), MOPS pH 6.75): 0.11 A510 units
A510, AAD1 (AAD1 (v1); Table 3, 15 min): 0.034
A510, AAD1 (10x) (AAD1 (v1); Table 3, 15 min): 0.383
A510 (AAD1 (v1); Table 8, 1 mM, 27 μg crude recombinant AAD1 (v1) extract from E. coli): 0.177
% 2,4-D (AAD1 (v1); Table 8, relative to 2,4-D, crude AAD1 (v1) extract): 100%
apparent Vmax, AAD1 (v1) (AAD1 (v1); partially purified enzyme): 0.11 A510 units
kcat (AAD1 (v1); purified AAD1 (v1)): 0.045 s⁻¹
Vmax ± SE (AAD1 (v1); purified AAD1 (v1), Michaelis-Menten fit): 0.57 ± 0.00 μmol min^−1 mg^−1 AAD1

Nc1c(Cl)c(F)nc(OCC(=O)O)c1Cl [Fluroxypyr]
root ratio (PAAD1.315.064 ARBTH): 1
shoot ratio (PAAD1.315.064 ARBTH): 0.5
resistance afforded by AAD1 (v3) in plate test (PAAD1.315.064 ARBTH; root and shoot assessment): did not effectively protect
PAAD1.315.064 ARBTH root 150 (PAAD1.315.064 ARBTH): 0.2 ppm
PAAD1.315.064 T3 ARBTH shoot 150 (PAAD1.315.064 ARBTH): 1 ppm
IC50 [1, 3]: 1820 nM
IC50 ([1]; Arabidopsis thaliana, root length, 7 days, read-out: GR50, Chemical alone): 2200 nM
IC50 [1, 2]: 2250 nM
GR50 ratio [1]: <1

CC(Oc1ccc(Oc2ncc(C(F)(F)F)cc2Cl)cc1)C(=O)O (stereo not shown) [haloxyfop]
% Injury Ave (Wildtype Arabidopsis; 100 g ae/ha; Wildtype; 2 WAT): 0.0%
% Injury Range (Wildtype Arabidopsis; 100 g ae/ha; Wildtype; 2 WAT): 0%
% Injury Ave (Wildtype Arabidopsis; 200 g ae/ha; Wildtype; 2 WAT): 0.0%
% Injury Range (Wildtype Arabidopsis; 200 g ae/ha; Wildtype; 2 WAT): 0%
% Injury Ave (Wildtype Arabidopsis; 400 g ae/ha; Wildtype; 2 WAT): 20.0%
% Injury Range (Wildtype Arabidopsis; 400 g ae/ha; Wildtype; 2 WAT): 20%
% Injury Ave (Wildtype Arabidopsis; 800 g ae/ha; Wildtype; 2 WAT): 73.3%
% Injury Range (Wildtype Arabidopsis; 800 g ae/ha; Wildtype; 2 WAT): 70-85%
% Injury Ave (Wildtype Arabidopsis; 1600 g ae/ha; Wildtype; 2 WAT): 93.3%
% Injury Range (Wildtype Arabidopsis; 1600 g ae/ha; Wildtype; 2 WAT): 80-100%
% Injury 20-40% (Wildtype Arabidopsis; [4]): 0
% Injury <20% (Wildtype Arabidopsis; [4]): 3
% Injury >40% (Wildtype Arabidopsis; [4]): 0
% Injury 20-40% (Wildtype Arabidopsis; [5]): 0
% Injury <20% (Wildtype Arabidopsis; [5]): 3
% Injury >40% (Wildtype Arabidopsis; [5]): 0
% Injury 20-40% (Wildtype Arabidopsis; [6]): 3
% Injury <20% (Wildtype Arabidopsis; [6]): 0
% Injury >40% (Wildtype Arabidopsis; [6]): 0
% Injury 20-40% (Wildtype Arabidopsis; [7]): 0
% Injury <20% (Wildtype Arabidopsis; [7]): 0
% Injury >40% (Wildtype Arabidopsis; [7]): 3
% Injury 20-40% (Wildtype Arabidopsis; [8]): 0
% Injury <20% (Wildtype Arabidopsis; [8]): 0
% Injury >40% (Wildtype Arabidopsis; [8]): 3
A510, AAD1 (AAD1 (v1); Table 4): 0.172
A510, AAD1 (10x) (AAD1 (v1); Table 4): 1.63

C[C@@H](Oc1ccc(Oc2cnc3cc(Cl)ccc3n2)cc1)C(=O)O [quizalofop]
activity relative to the dichlorprop rate (AAD1 (v1); purified AAD1 (v1), 1 mM substrate): 76%
